Like-named read-outs stand apart in the source and are kept apart here.
What was measured:
human CK2α = molecular target: T1, human CK2α (Homo sapiens, UniProt P68400); assay: CK2α activity, P81 filter isotopic assay (inhibition, IC50); type: biochemical
T1 construct: CK2α was from KinaseDetect Aps; purchased KinaseDetect Aps
Experimental: CK2α activity was monitored using the P81 filter isotopic assay. The reaction mixture contained 20 mM Tris-HCl, pH 7.5, 20 mM MgCl2, 20 µM DTT, 20 µM peptide substrate, 0.5 mM β-glycerol, 0.1 mM EGTA, 10 µM ATP (200–300 cpm/pmol) and CK2α (0.4 µg/µl). The reaction was initiated with enzyme in a total volume of 50 µl, and incubated at 30°C for 20 min. 10 µl of a reaction mixture was spotted onto a P81 filter. The filter papers were washed 3× with 0.6% phosphoric acid, once with 95% ethanol, then counted in a scintillation counter (Canberra-Packard).
ATP, and Cmax and Cmin are the asymptotic values.

[1] = design: method as in PMID 20734498, PMID 22632480; conditions: cited from earlier work; for Cw (aqueous solubility): experimental
[2] = design: method as in PMID 20734498, PMID 22632480; conditions: ab initio, calculated previously; cited from earlier work
[3] = design: method as in PMID 20734498, PMID 22632480; conditions: ab initio, calculated previously; cited from earlier work; remark: listed apart in the source
[4] = design: method as in PMID 20734498, PMID 22632480; conditions: experimental, aqueous medium; cited from earlier work
protein kinase CK2 = conditions: cited from earlier work
[5] = 10 µM ATP, 20 µM peptide substrate, pH 7.5, 30°C, 20 min
[6] = acidic solution, compared with neutral pH

T1 sequence (P68400 whole entry): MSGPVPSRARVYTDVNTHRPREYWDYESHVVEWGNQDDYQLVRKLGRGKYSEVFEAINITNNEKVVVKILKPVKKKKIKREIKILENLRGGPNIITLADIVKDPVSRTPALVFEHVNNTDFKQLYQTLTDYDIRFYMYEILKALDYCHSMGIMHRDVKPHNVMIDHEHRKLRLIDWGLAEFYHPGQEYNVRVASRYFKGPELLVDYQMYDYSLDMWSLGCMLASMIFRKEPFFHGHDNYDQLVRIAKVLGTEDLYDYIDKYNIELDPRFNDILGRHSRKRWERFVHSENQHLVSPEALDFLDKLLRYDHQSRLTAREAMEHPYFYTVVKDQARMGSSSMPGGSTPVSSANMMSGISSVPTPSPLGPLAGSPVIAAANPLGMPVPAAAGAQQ

Row | IC50 (human CK2α; [5]) [µM] | Compound | Cw (aqueous solubility) [1] [µM] | ΔGdiss (free energy of proton dissociation) [2] [kcal/mol] | ΔGsolv (free energy of solvation of the anionic form) [3] [kcal/mol] | pKa (triazole proton dissociation) [4] | other results
1 | 10.6 ± 0.9 | Brc1ccc2[nH]nnc2c1Br [4,5-Br2Bt] | 499 | 54.3 | -46.8 | 6.49 | 
2 | 26 ± 3 | Brc1ccc2nn[nH]c2c1 [5-BrBt] | 2770 | 58.1 | -50.7 | 7.55 | 
3 |  | Brc1c(Br)c(Br)c2[nH]cnc2c1Br [TBBz, 4,5,6,7-tetrabromobenzimidazole] |  |  |  |  | Ki (protein kinase CK2): low µM and sub-µM range; activity relative to TBBt (fold less active) (protein kinase CK2): 4 fold
4 | > 2000 | c1ccc2[nH]nnc2c1 [Bt, benzotriazole, reference compound] | 196000 | 59.5 | -59.9 | 8.56 | inhibitory activity against CK2α (in words) (human CK2α): totally inactive; IC50 (human CK2α; as stated in legend of Figure 5): > 2000 µM
5 | 72 ± 11 | Brc1ccc(Br)c2[nH]nnc12 [4,7-Br2Bt] | 1980 | 53.4 | -48.0 | 5.84 | 
6 |  | Clc1c(Cl)c(Cl)c2[nH]nnc2c1Cl [4,5,6,7-tetrachloro-benzotriazole] |  |  |  |  | activity against CK2 (in words) (protein kinase CK2): moderate activity
7 | 119 ± 10 | Brc1cccc2[nH]nnc12 [4-BrBt] | 3870 | 56.7 | -53.3 | 7.08 | 
8 |  | Cc1c(C)c(C)c2[nH]nnc2c1C [4,5,6,7-tetramethyl-benzotriazole] |  |  |  |  | activity against CK2 (in words) (protein kinase CK2): low, but detectable, activity
9 | 5.8 ± 0.9 | Brc1cc(Br)c2[nH]nnc2c1Br [4,5,7-Br3Bt] | 1040 | 52.2 | -41.9 | 5.38 | 
10 |  | Brc1c(Br)c(Br)c2[nH]nnc2c1Br [TBBt, 4,5,6,7-tetrabromobenzotriazole, reference compound] | 218 | 49.7 | -38.0 |  | solubility (in words) ([1]; neutral form of the ligand): very poorly soluble
11 | 0.38 ± 0.02 | Brc1cc2[nH]nnc2c(Br)c1Br [4,5,6-Br3Bt] | 62.3 | 52.3 | -40.9 | 5.91 | solubility (in words) [1, 6]: visibly higher; solubility (in words) ([1]; neutral pH): as low as for TBBt
12 | 10 ± 2.2 | Brc1cc(Br)c2nn[nH]c2c1 [4,6-Br2Bt] | 234 | 54.2 | -45.5 | 6.38 | 
13 | 0.56 ± 0.02 | Brc1cc2nn[nH]c2cc1Br [5,6-Br2Bt] | 231 | 55.8 | -44.4 | 6.93 | solubility (in words) [1, 6]: visibly higher; solubility (in words) ([1]; neutral pH): as low as for TBBt
